Where a name gives a salt, the structure may show the parent alone. Read-outs that look alike come from different tables or passages of the source. Where a SMILES comes first, the peptide text is derived from it. Where no end group is shown, it is not given here.
Legend:
HaCaT cells = assay: Release of lactate dehydrogenase after H2O2 damage; assay type: cell-based, human; conditions: 800 μM H2O2 for 2 h, then fresh medium 18 h, no peptide
Method: Lactate dehydrogenase (LDH) activity of the cellular culture was evaluated using an LDH release assay kit (Beyotime). Cells (1 × 10^5 cells per well) were cultured in a 24-well plate for 24 h to reach approximately 80% confluence and then treated either with peptide solution or peptide-free DMEM (positive control, PC). After 4 h incubation, both the peptide solution and peptide-free culture medium were replaced with 250 μL of 800 µM H2O2 and incubated for another 2 h. Then, the cells were incubated with 500 µL of the fresh medium instead of H2O2 for 18 h. Then, 200 µL of the supernatant alone was harvested and mixed with 20 µL of the releasing agent, while the PC medium together with cells was incubated with the equivalent releasing agent. A measure of 200 μL of DMEM alone mixed with 20 µL of the releasing agent was used as a negative control (NC). Then, the solution was incubated at 37°C and 5% CO2 for 1 h and centrifuged at 1,000 rpm for 4 min. A measure of 40 μL suspension per well was pipetted into a 96-well plate and mixed with 20 µL of fresh LDH working solution that was prepared according to the manufacturer’s protocol. The plate was briefly vortexed in the dark for 30 min, and the OD values were measured at 490 nm wavelength. LDH release (%) was expressed via the following equation: LDH (%) = (ODsample − ODnc)/(ODpc − ODnc) × 100%.

HaCaT [1] = assay: Cell apoptosis assay (Annexin V-FITC/PI, FCM); assay type: cell-based, human; conditions: with or without peptide 200 μg/mL 4 h, 800 μM H2O2 2 h, medium 18 h, Figure 4E/G
Method: The percentage of early-stage apoptosis and late-stage apoptosis and necrosis of cells induced by H2O2, with or without peptide addition, were determined using an Annexin V-FITC/PI double-staining assay kit (Beyotime). Cells (1×10^5 cells per well) were seeded in a 24-well plate, pretreated with or without peptide solutions, and incubated for 4 h. The peptide solution or culture medium was replaced with 800 μM of H2O2 solution and was incubated for 2 h at 37°C. Then, the cells were incubated only with the complete medium for another 18 h. Non-treated groups were taken as controls. Suspended medium (200 µL) and trypsin-disassociated cells were collected and centrifuged at 1,000 rpm for 4 min. The precipitate was resuspended in binding buffer (195 µL) plus Annexin V-FITC (5 µL) and incubated for 5 min, followed by 10-min staining of 10 µL propidium iodide (PI). The non-staining sample was used as a reference. After a gentle mix at room temperature and a dark environment, the ratio of cell death was detected via flow cytometry (FCM). […] The free dye was inclined to bind to DNA in the nucleus and emitted strong green fluorescence when DEVD dye was broken down by caspase-3. The fluorescence intensity was measured by FCM, which represented the activity of caspase-3.

HaCaT [2] = assay: Cell viability, CCK-8 assay; conditions: 2 h incubation
Method: (§2) Cells (1 × 10^4 cells per well) were seeded in a 96-well plate to reach approximately 80% confluence. Wells filled with DMEM alone served as positive controls (PCs). The culture medium of sample groups was replaced either by 100 μL of H2O2 or naked/FITC-labeled peptide solutions at different concentrations for a certain time of incubation, and non-treatment wells acted as negative controls (NCs). Then, the plate solutions were substituted with 100 μL of 10% CCK-8 solution per well and incubated for another 2 h, followed by an absorbance reading taken at 450 nm. The cell survival was determined according to the following formula: cell viability (%) = (ODsample − ODpc)/(ODnc − ODpc) × 100%.

HFF-1 = assay: Cell viability, CCK-8 assay; conditions: HFF-1, 2 h incubation
Method: as §2

[3] = molecular target: T1, Human neutrophil elastase (Homo sapiens, UniProt P08246); assay: Assay of elastase activity (pNA substrate, OD 405 nm); assay type: biochemical; conditions: 2.5 U/mL elastase, 37°C, 2 h time point; for elastase inhibition rate: peptide 200 μg/mL, 5 min preheating
T1 construct: purchased Yuanye Bio Co. (Shanghai)
T1 sequence (P08246 30-267): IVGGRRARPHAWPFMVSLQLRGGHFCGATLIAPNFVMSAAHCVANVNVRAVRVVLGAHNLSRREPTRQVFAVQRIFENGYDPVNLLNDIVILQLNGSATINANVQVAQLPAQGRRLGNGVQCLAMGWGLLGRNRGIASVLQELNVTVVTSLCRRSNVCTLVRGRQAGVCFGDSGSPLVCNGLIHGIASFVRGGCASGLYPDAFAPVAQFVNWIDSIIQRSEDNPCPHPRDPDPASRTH
Method: N-Methoxysuccinyl-ala-ala-pro-val-p-nitroanilide (CAS: 70967-90-7) was bought from Sigma Chemical Co. (St. Louis, United States). Sivelestat sodium salt hydrate (S7198, CAS: 201677-61-4) was purchased from Meilun Co. (Dalian). Human neutrophil elastase (30 U/mg) was obtained from Yuanye Bio Co. (Shanghai). p-Nitroanilide (pNA, CAS: […]) was bought from Aladdin Co. (Shanghai). All other chemicals were of analytical grade and purchased from Sigma.
The stock solution (0.1 mg/mL pNA) was prepared in 10% DMSO. The standard curve of pNA was made using the different volumes of stock (200, 150, 100, 50, 30, 20, 10, 5, and 1 μL) mixed with 10% DMSO to reach a final volume of 200 μL. The optical density (OD) of each sample was measured at a wavelength of 405 nm.
Substrates were dissolved in 10% DMSO to form a final concentration of 100 μM. A measure of 100 μL of different concentrations (10, 5, 2.5, 1.25, 0.625, and 0.3125 U/mL) of elastase solution in 10% DMSO was preheated at 37°C for 5 min, and 100 μL of substrate solution was added to start the reaction at 37°C. The absorbance at 405 nm was monitored at 5-min intervals up to a recording time of 2 h at 37°C. A measure of 200 μL of 10% DMSO was taken as a blank control.
A measure of 90 μL of 2.5 U/mL elastase solution together with 10 μL of the sample at a certain concentration was preheated at 37°C for 5 min, and then 100 μL of the substrate was added to initiate a 120 min-reaction at 37°C. The OD was read at 405 nm. A measure of 200 μL of 10% DMSO was used as a blank control; 10 μL of Sivelestat solution at 10 mM was prepared as a positive control; and 10 μL of PBS was added as a negative control that represented the maximum enzyme activity. The inhibition rate of elastase was calculated according to the following formula: inhibition (%) = [1 − (ODsample − ODblank)/(ODneg − ODblank)] × 100%.

[4] = test system: COL-1 of mouse embryonic fibroblasts NIH3T3; assay: Immunofluorescence staining of COL-1; assay type: cell-based; conditions: NIH3T3, pretreatment 4 h (RGD-GHK 200 μg/mL), 400 µM H2O2 2 h, fresh medium 20 h
Method: (§1) HFF-1 cells (1.5 × 10^5 cells per well) or mouse embryonic fibroblasts (NIH3T3) were grown on sterile cell slides for 24 h till 80% confluence. A measure of 200 μg/mL of RGD-GHK and GHK solutions was prepared with serum-free DMEM, and the cells were treated with the solutions for 4 h. Then, the solutions were replaced with 400 µM H2O2 and incubated for another 2 h. Then, the fresh culture medium was added to the cells and incubated for another 20 h. Pretreatment without peptides was used as a negative control, while treatment with an anti-aging peptide, acetyl hexapeptide-8 (Wrinklend), was taken as a positive control. The slides were washed three times with PBS, followed by fixation in 500 µL of 4% paraformaldehyde for 15 min at room temperature. After washing with PBS another three times, the cells were permeabilized with 0.5% Triton X-100 for 15 min and washed with PBS repeatedly. The cells were blocked using 1% BSA for 1 h to eliminate non-specific binding. Samples were incubated at 4°C overnight with 100 µL of rabbit monoclonal antibody against type I collagen (COL1A1, 1:100 dilution, CST). […] Then, a fluorescent anti-quenching agent was applied to seal off the slips for 5 min, and the slips were observed using an upright fluorescence microscope.

[5] = test system: COL-1 of the human fibroblasts HFF-1; assay: Immunofluorescence staining of COL-1; assay type: cell-based; conditions: HFF-1, pretreatment 4 h (RGD-GHK 200 μg/mL), 400 µM H2O2 2 h, fresh medium 20 h
Method: as §1

chymotrypsin = assay: Proteolytic stability assay; assay type: in vitro ADME; conditions: peptide 1 mg/mL, chymotrypsin 1 mg/mL, 37°C, 0, 1, 2, 4, 8, 16 h (Figure S3: 0-8 h); remaining peptide by C18 RP-HPLC, 220 nm
Method: To evaluate the proteolytic stability of peptides against chymotrypsin, the peptides were dissolved to 1 mg/mL and incubated with chymotrypsin (1 mg/mL) at 37°C for different times (0, 1, 2, 4, 8, and 16 h). Afterward, the remaining peptides in the samples were analyzed by C18 reversed-phase high-performance liquid chromatography (HPLC) and detected at 220 nm. The mobile phase of HPLC was a mixture of acetonitrile and deionized water containing 0.1% trifluoroacetic acid.

[6] = In vitro skin permeation test, Franz-type diffusion cells
Method: The transdermal delivery of GHK and RGD-GHK was measured through the porcine skin. Permeation experiment was carried out for 24 h at 37 °C with Franz-type diffusion cells. Peptides in collected receptor solutions and skin retention were analyzed by HPLC. […] To further test whether the incorporation of a targeting motif could enhance the binding of chimeric peptides in vivo, we used smearing FITC-peptides at the mouse back for 24 h and tracked the peptide location of the skin slices by fluorescent microscopy.

mouse red blood cells = conditions: 2 mg/mL peptide, 5% (v/v) mouse red blood cells in PBS, 37°C, 1 h, OD 540 nm; repeated five times
Method: The blood compatibility of peptides was assessed using mouse red blood cells. The procedure involved obtaining red blood cells by centrifuging mouse blood at 2,000 rpm for 5 min, followed by washing them with PBS three times. The red blood cells were then diluted to a final concentration of 5% (v/v). Then, 2 mg/mL of peptides were added to 1 mL of the red blood cell suspension, and the mixture was incubated at 37°C for 1 h. After incubation, the suspension was centrifuged at 2000 rpm for 5 min, and the supernatant was measured at 540 nm using a microplate reader. The positive control consisted of 0.1% Triton X-100, while PBS served as a negative control. […] The hemolysis percentage was calculated using the following formula: hemolysis (%) = [(ODsample −ODnc)/(ODpc − ODnc)] × 100%.

[7] = porcine skin, Franz-type diffusion cells, 24 h, 37 °C, HPLC

**Q.** For `OO` [H2O2], which LDH leakage (HaCaT cells) is on record?
**A.** over 37%

**Q.** What about the “ratio of early apoptosis” value (HaCaT [1]) of the same compound?
**A.** 28%

**Q.** What about the “concentration with apparent cytotoxic effect” value (HaCaT [2]) of the same compound?
**A.** 1,600 μM

**Q.** And the “concentration with obvious cytotoxicity” value (HFF-1)?
**A.** 800 µM

**Q.** Which inhibition at 250 µM ([3]; 250 μM of Sivelestat (positive control), read-out: elastase inhibition rate) does the source give for `CC(C)(C)C(=O)Oc1ccc(S(=O)(=O)Nc2ccccc2C(=O)NCC(=O)O)cc1` [Sivelestat, Sivelestat sodium salt hydrate, reference compound] here?
**A.** ~65%

**Q.** With RKQRRERGHK [sOtx2-GHK] as the compound, how does the elastase inhibition rate [3] read?
**A.** ~20%

**Q.** What does the source list for acetyl hexapeptide-8 [Wrinklend]?
**A.** COL-1 expression (immunofluorescence) [4]: significantly suppressed COL-1 degradation; COL-1 expression (immunofluorescence) [5]: significantly suppressed COL-1 degradation

**Q.** Which elastase inhibition rate [3] does the source give for RGDGHK [RGD-GHK] here?
**A.** approximately 25%

**Q.** And the “proteolytic stability against chymotrypsin, compared with GHK” value (chymotrypsin)?
**A.** no significant difference in the proteolytic stability

**Q.** And the “peptide detected in the receptor cell” value [6, 7]?
**A.** approximately 5%

**Q.** And the “peptide detected in the skin (skin retention)” value [6, 7]?
**A.** 5%

**Q.** And the “hemolysis (RBCs lysed)” value (mouse red blood cells)?
**A.** less than 1%

**Q.** Which results are given for `NCCCC[C@H](NC(=O)[C@H](Cc1cnc[nH]1)NC(=O)CN)C(=O)O` [GHK, tripeptide-1, reference compound] (H-Gly-His-Lys-OH)?
**A.** peptide detected in the receptor cell [6]: ~0.5%; peptide detected in the skin (skin retention) [6]: 2.7%

— publication PMC10679740, “Role of peptide–cell surface interactions in cosmetic peptide application” (Frontiers in Pharmacology, 2023)
